Laboratory results published in patent EP2430044B1, “PEPTIDES INCREASING THE SECRETION AND/OR EXPRESSION OF AT LEAST ONE GAS[…] AND/OR INDUCING THE INCREASE OF MUCUS CELLS OR PANETH CELLS” (Institut National de la Recherche Agronomique (INRA), priority 2009, dated 2010).

Key:
Type in all cases: cell-based, humaine
HT29-MTX = test: Mucin secretion by HT29-MTX cells (ELLA on culture supernatants); conditions: pre-incubation with cyprodime 10^-5 M
Procedure: (§1) Les cellules HT29-MTX et HT29-CI16E étaient cultivées en flasques de 25 cm^2 avec du milieu minimum essentiel DMEM supplémenté avec 10% de SVF (sérum de veau foetal) et 1 % d'antibiotiques (pénicilline 10 000 Ul/ml et streptomycine […]). Les cellules étaient incubées à 37°C dans une atmosphère humide (5 % de CO2 et […]). A confluence, les cellules soumises au préalable à l'action de la trypsine (trypsine-EDTA) étaient cultivées dans des plaques 12 puits à raison de 1 ml de milieu de culture complet par puits. Afin de maintenir les cellules dans des conditions optimales de croissance, le milieu de culture était changé tous les 2 jours.
(§2) Les expériences ont été réalisées sur les plaques 12 puits 21 jours après confluence des cellules. La veille de la stimulation, les plaques étaient cultivées sans SVF. Le pool peptidique total des yaourts ainsi que les différentes fractions lyophilisées étaient d'abord repris dans de l'eau stérile en solution 10 fois concentrée (10[Y]), [Y] correspondant à la concentration des peptides dans le yaourt initial). L'osmolarité et le pH des échantillons (ajusté à la neutralité par NaOH) étaient contrôlés à ce stade. Des dilutions successives ([Y], [Y]/2 et [Y]/5) étaient ensuite réalisées dans du milieu de culture dépourvu de SVF. Le jour de l'expérience, le milieu était aspiré puis les cellules étaient lavées avec du PBS à 37°C. […]

MUC2 = MUC2 expression in HT29-MTX cells (RT-PCR); conditions: with cyprodime 10^-5 M
Procedure: as §1
as §2, with “stade.” for “stade. Des dilutions successives ([Y], [Y]/2 et [Y]/5) étaient ensuite réalisées dans du milieu de culture dépourvu de SVF. Le jour de l'expérience, le milieu était aspiré puis les cellules étaient lavées avec du PBS à 37°C.”
(§3) Les ARN ont été isolés et rétro-transcrits comme décrit précédemment puis les ADNc ont été quantifiés en capillaires à l'aide du kit « FastStart DNA Master SYBR Green l » sur un appareil « lightCycler » (Roche). […]

MUC4 = MUC4 expression in HT29-MTX cells (RT-PCR)
Procedure: as §1
as §2, with “stade.” for “stade. Des dilutions successives ([Y], [Y]/2 et [Y]/5) étaient ensuite réalisées dans du milieu de culture dépourvu de SVF. Le jour de l'expérience, le milieu était aspiré puis les cellules étaient lavées avec du PBS à 37°C.”
as §3

MUC5AC = MUC5AC expression in HT29-MTX cells (RT-PCR); conditions: with cyprodime, quantitative RT-PCR (Lightcycler)
Procedure: as §1
as §2, with “stade.” for “stade. Des dilutions successives ([Y], [Y]/2 et [Y]/5) étaient ensuite réalisées dans du milieu de culture dépourvu de SVF. Le jour de l'expérience, le milieu était aspiré puis les cellules étaient lavées avec du PBS à 37°C.”
as §3

COc1cccc2c1[C@]13CCN(CC4CC4)[C@H](C2)[C@]1(OC)CCC(=O)C3 [cyprodime]
sécrétion de mucines induite par la fraction F3 (HT29-MTX; fraction F3 at concentration Y): inhibe
sécrétion de mucines induite par la fraction C2 (HT29-MTX; then fraction C2 at concentration Y, 4 h): inhibe
effet de la fraction C2 sur l'expression de MUC2 (MUC2): aboli
effet de la fraction C2 sur l'expression de MUC4 (MUC4; with cyprodime 10^-5 M): aboli
augmentation du niveau des transcrits codant MUC4 induite par la fraction F3 (MUC4; with cyprodime, quantitative RT-PCR (Lightcycler)): Un résultat identique
augmentation du niveau des transcrits codant MUC5AC induite par la fraction F3 (MUC5AC): abolit
